system: HuH-7 replicon cells 5–15 and 9–13 (HCV replication); assay: Inhibition of viral replication in HuH-7 replicon cells (HCV RNA / GAPDH RNA by multiplex RT-PCR); assay type: cell-based; settings: Hepatitis C virus, 72 h; inhibiting 50% of replication; HuH-7 replicon cells, 3 days; read-out: IC50
Method in brief: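 HCV and GAPDH RNA were measured by multiplex TaqMan RT-PCR (HCV 5′ untranslated region) after 3-day compound treatment at 37 °C, final 100 μM–1 μM in 1% DMSO. Cells were plated 24 h beforehand at 7×10^3/well. Read-out: HCV-to-GAPDH ratio expressed as percent control versus untreated cells.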

**Q.** Cc1ccc(S(=O)(=O)Oc2cnccc2/C=N/NC(=O)Cc2cccc(Cl)c2)cc1 [Compound 228, 4-((E)-{2-[2-(3-chlorophenyl)acetyl]hydrazono}methyl)-pyridin-3-yl 4-methylbenzenesulfonate] was tested. Which IC50 did it give?
**A.** < 5 µM

**Q.** How did the IC50 turn out when COc1cccc(CC(=O)N/N=C/c2ccncc2OS(=O)(=O)c2ccc(C)cc2)c1 [Compound 229, 4-((E)-{2-[2-(3-methoxyphenyl)acetyl]hydrazono}methyl)-pyridin-3-yl 4-methylbenzenesulfonate] was run?
**A.** < 5 µM

**Q.** With COc1cccc(CC(=O)N/N=C/c2ccncc2OS(=O)(=O)c2ccc(C(F)(F)F)cc2)c1 [Compound 230, 4-((E)-{2-[2-(3-methoxyphenyl)acetyl]hydrazono}methyl)-pyridin-3-yl 4-(trifluoromethyl)benzenesulfonate] as the molecule, how does the IC50 read?
**A.** < 5 µM

**Q.** Cc1ccc(S(=O)(=O)Cc2ccccc2/C=N/NC(=O)Cc2cccc(Cl)c2)cc1 [Compound 231, 2-(3-chlorophenyl)-N′-[(1E)-(2-{[(4-methylphenyl)sulfonyl]methyl}phenyl)-methylene]acetohydrazide] was tested. Which IC50 did it give?
**A.** < 5 µM

**Q.** For Cc1ccc(S(=O)(=O)Cc2ccccc2/C=N/NC(=O)Cc2ccccc2)cc1 [Compound 232, N′-[(1E)-(2-{[(4-methylphenyl)sulfonyl]methyl}phenyl)-methylene]-2-phenylacetohydrazide], which IC50 is on record?
**A.** < 5 µM

**Q.** COc1cccc(CC(=O)N/N=C/c2ccccc2CS(=O)(=O)c2ccc(C)cc2)c1 [Compound 233, 2-(3-methoxyphenyl)-N′-[(1 E)-(2-{[(4-methylphenyl)sulfonyl]methyl}phenyl)-methylene]acetohydrazide] was tested. Which IC50 did it give?
**A.** < 5 µM

**Q.** How did the IC50 turn out when Cc1ccc(Oc2ccccc2/C=N/NC(=O)Cc2ccccc2)cc1 [Compound 234, N′-{(1E)-[2-(4-methylphenoxy)phenyl]methylene}-2-phenylacetohydrazide] was run?
**A.** > 50 µM

**Q.** With Cc1ccc(COc2ccccc2/C=N/NC(=O)Cc2ccccc2)cc1 [Compound 235, N′-((1E)-{2-[(4-methylbenzyl)oxy]phenyl}methylene)-2-phenylacetohydrazide] as the molecule, how does the IC50 read?
**A.** > 50 µM

**Q.** For COc1cccc(CC(=O)N/N=C/c2ccccc2OCc2ccc(C)cc2)c1 [Compound 236, 2-(3-methoxyphenyl)-N′-((1E)-{2-[(4-methylbenzyl)oxy]phenyl}methylene)-acetohydrazide], which IC50 is on record?
**A.** > 50 µM

**Q.** For CC(C)(C)c1ccc(COc2ccccc2/C=N/NC(=O)Cc2cccnc2)cc1 [Compound 237, N′-((1E)-{2-[(4-tert-butylbenzyl)oxy]phenyl}methylene)-2-pyridin-3-ylacetohydrazide], which IC50 is on record?
**A.** > 50 µM

**Q.** How did the IC50 turn out when O=C(Cc1ccccc1)N/N=C/c1ccccc1OCc1cccc2ccccc12 [Compound 238, N′-{(1E)-[2-(1-naphthylmethoxy)phenyl]methylene}-2-phenylacetohydrazide] was run?
**A.** 5 to 50 µM

**Q.** For COc1cccc(CC(=O)N/N=C/c2ccccc2S(=O)(=O)c2ccc(C)cc2)c1 [Compound 239, 2-(3-methoxyphenyl)-N′-((1E)-{2-[(4-methylphenyl)sulfonyl]phenyl}methylene)-acetohydrazide], which IC50 is on record?
**A.** 5 to 50 µM

**Q.** With CN(c1ccccc1/C=N/NC(=O)c1cc(Cl)ccc1Cl)S(=O)(=O)c1ccc(C(F)(F)F)cc1 [Compound 240, N-(2-{(E)-[(2,5-dichlorobenzoyl)hydrazono]methyl}phenyl)-N-methyl-4-(trifluoromethyl)benzenesulfonamide] as the molecule, how does the IC50 read?
**A.** 1 µM

**Q.** How did the IC50 turn out when O=C(Cc1cccc(Br)c1)N/N=C/c1ccccc1NS(=O)(=O)c1ccc(C(F)(F)F)cc1 [Compound 241, N-[2-((E)-{[(3-bromophenyl)acetyl]hydrazono}methyl)-phenyl]-4-(trifluoromethyl)benzenesulfonamide] was run?
**A.** > 50 µM

**Q.** With O=C(Cc1cccc(Cl)c1)N/N=C/c1ccccc1NS(=O)(=O)c1ccc(C(F)(F)F)cc1 [Compound 242, N-[2-((E)-{[(3-chlorophenyl)acetyl]hydrazono}methyl)-phenyl]-4-(trifluoromethyl)benzenesulfonamide] as the molecule, how does the IC50 read?
**A.** > 50 µM

**Q.** For CN(c1ccccc1/C=N/NC(=O)Cc1ccccc1)S(=O)(=O)c1ccc(C(F)(F)F)cc1 [Compound 243, N-methyl-N-(2-{(E)-[(phenylacetyl)hydrazono]methyl}phenyl)-4-(trifluoromethyl)benzenesulfonamide], which IC50 is on record?
**A.** < 5 µM

**Q.** How did the IC50 turn out when CN(c1ccccc1/C=N/NC(=O)Cc1cccc(Cl)c1)S(=O)(=O)c1ccc(C(F)(F)F)cc1 [Compound 244, N-[2-((E)-{[(3-chlorophenyl)acetyl]hydrazono}methyl)-phenyl]-N-methyl-4-(trifluoromethyl)benzenesulfonamide] was run?
**A.** < 5 µM

**Q.** Which IC50 does the source give for CN(c1ccccc1/C=N/NC(=O)Cc1cccc(Br)c1)S(=O)(=O)c1ccc(C(F)(F)F)cc1 [Compound 245, N-[2-((E)-{[(3-bromophenyl)acetyl]hydrazono}methyl)-phenyl]-N-methyl-4-(trifluoromethyl)benzenesulfonamide] here?
**A.** < 5 µM

**Q.** Which IC50 does the source give for COc1ccc(CC(=O)N/N=C/c2ccccc2N(C)S(=O)(=O)c2ccc(C(F)(F)F)cc2)cc1OC [Compound 246, N-[2-((E)-{[(3,4-dimethoxyphenyl)acetyl]hydrazono}methyl)-phenyl]-N-methyl-4-(trifluoromethyl)benzenesuIfonamide] here?
**A.** < 5 µM

**Q.** For CN(c1ccccc1/C=N/NC(=O)Cc1cccnc1)S(=O)(=O)c1ccc(C(F)(F)F)cc1 [Compound 247, N-methyl-N-(2-{(E)-[(pyridin-3-ylacetyl)hydrazono]methyl}phenyl)-4-(trifluoromethyl)benzenesulfonamide], which IC50 is on record?
**A.** < 5 µM

**Q.** How did the IC50 turn out when CN(c1ccccc1/C=N/NC(=O)Cc1ccc2c(c1)OCO2)S(=O)(=O)c1ccc(C(F)(F)F)cc1 [Compound 248, N-(2-{(E)-[(1,3-benzodioxol-5-ylacetyl)hydrazono]methyl}phenyl)-N-methyl-4-(trifluoromethyl)benzenesulfonamide] was run?
**A.** < 5 µM

**Q.** CN(c1ccccc1/C=N/NC(=O)Cc1c[nH]cn1)S(=O)(=O)c1ccc(C(F)(F)F)cc1 [Compound 249, N-(2-{(E)-[(1H-imidazol-4-ylacetyl)hydrazono]methyl}phenyl)-N-methyl-4-(trifluoromethyl)benzenesulfonamide] was tested. Which IC50 did it give?
**A.** < 5 µM

**Q.** O=S(=O)(Cc1cccc(Cl)c1)N/N=C/c1ccccc1OS(=O)(=O)c1ccc(C(F)(F)F)cc1 [Compound 250, 2-((E)-[2-[(3-chlorobenzyl)sulfonyl]hydrazono}methyl)-phenyl 4-(trifluoromethyl)benzenesulfonate] was tested. Which IC50 did it give?
**A.** 5 to 50 µM

**Q.** With O=S(=O)(Cc1ccccc1)N/N=C/c1ccccc1OS(=O)(=O)c1ccc(C(F)(F)F)cc1 [Compound 251, 2-{(E)-[2-(benzylsulfonyl)hydrazono]methyl}phenyl4-(trifluoromethyl)benzenesulfonate] as the molecule, how does the IC50 read?
**A.** 5 to 50 µM

**Q.** Which IC50 does the source give for O=S(=O)(Cc1ccc(C(F)(F)F)cc1)N/N=C/c1ccccc1OS(=O)(=O)c1ccc(C(F)(F)F)cc1 [Compound 252, 2-[(E)-(2-{[4-(trifluoromethyl)benzyl]sulfonyl}hydrazono)-methyl]phenyl 4-(trifluoromethyl)benzenesulfonate] here?
**A.** 5 to 50 µM

**Q.** Which IC50 does the source give for O=C(Cc1ccc2c(c1)OCO2)NC1CC1c1ccccc1OS(=O)(=O)c1ccc(C(F)(F)F)cc1 (centres unmarked) [Compound 253, 2-(2-{[2-(1,3-benzodioxol-5-yl)acetyl]amino}cyclopropyl)phenyl 4-(trifluoromethyl)benzenesulfonate] here?
**A.** > 50 µM

**Q.** Which IC50 does the source give for O=C(NCc1ccccn1)Nc1ccccc1OS(=O)(=O)c1ccc(C(F)(F)F)cc1 [Compound 254, 2-({[(pyridin-2-ylmethyl)amino]carbonyl}amino)phenyl 4-(trifluoromethyl)benzenesulfonate] here?
**A.** > 50 µM

**Q.** How did the IC50 turn out when O=S(=O)(N/N=C/c1ccccc1OS(=O)(=O)c1ccc(C(F)(F)F)cc1)c1ccccc1 [Compound 255, 2-{(E)-[2-(phenylsulfonyl)hydrazono]methyl}phenyl4-(trifluoromethyl)benzenesulfonate] was run?
**A.** 5 to 50 µM

**Q.** With O=S(=O)(N/N=C/c1ccccc1OS(=O)(=O)c1ccc(C(F)(F)F)cc1)c1cccc2ccccc12 [Compound 256, 2-{(E)-[2-(1-naphthylsulfonyl)hydrazono]methyl}phenyl4-(trifluoromethyl)benzenesulfonate] as the molecule, how does the IC50 read?
**A.** 5 to 50 µM

— patent publication US7026339B2, “Inhibitors of HCV NS5B polymerase” (priority 2003, dated 2006)
